Data: US12123010B2, “Plants having increased tolerance to herbicides” (BASF SE, priority 2017, dated 2024)

Columns and labels:
[1] = tested on: Transgenic T2 Arabidopsis plants and ARBTH WT MC24 non-transgenic; assay: Greenhouse post spray test, injury 14 DAT (Tables ii, iii); assay type: in vivo, Arabidopsis thaliana; conditions: Arabidopsis thaliana, 336 h, Table ii; for pest or weed control at 50 g/ha: 50 g ai/ha; for pest or weed control at 100 g/ha: 100 g ai/ha; for pest or weed control at 200 g/ha: 200 g ai/ha;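 for all read-outs here: value is percent injury to the sprayed plants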
[2] = tested on: Transgenic T2 Arabidopsis plants harboring PPO inhibitor tolerance trait; assay: Lab based germination assay in 48-well plates (Table i); assay type: in vivo, Arabidopsis thaliana; conditions: construct AMATU_PPO2_TP_hemG (Escherichia coli); in comparison to wild type plants
[3] = target: Wild Type PPO Enzyme (Amaranthus PPO2, SEQ ID NO: 1) (Amaranthus tuberculatus, UniProt Q0NZW9); assay: PPO enzyme assay (recombinant), wild type; assay type: biochemical
[4] = tested on: Variant PPO Enzyme R128A, F420M (Amaranthus PPO2); assay type: biochemical; conditions: variant R128A, F420M vs wild type

Sequence of Wild Type PPO Enzyme (Amaranthus PPO2, SEQ ID NO: 1) (Q0NZW9 1-534): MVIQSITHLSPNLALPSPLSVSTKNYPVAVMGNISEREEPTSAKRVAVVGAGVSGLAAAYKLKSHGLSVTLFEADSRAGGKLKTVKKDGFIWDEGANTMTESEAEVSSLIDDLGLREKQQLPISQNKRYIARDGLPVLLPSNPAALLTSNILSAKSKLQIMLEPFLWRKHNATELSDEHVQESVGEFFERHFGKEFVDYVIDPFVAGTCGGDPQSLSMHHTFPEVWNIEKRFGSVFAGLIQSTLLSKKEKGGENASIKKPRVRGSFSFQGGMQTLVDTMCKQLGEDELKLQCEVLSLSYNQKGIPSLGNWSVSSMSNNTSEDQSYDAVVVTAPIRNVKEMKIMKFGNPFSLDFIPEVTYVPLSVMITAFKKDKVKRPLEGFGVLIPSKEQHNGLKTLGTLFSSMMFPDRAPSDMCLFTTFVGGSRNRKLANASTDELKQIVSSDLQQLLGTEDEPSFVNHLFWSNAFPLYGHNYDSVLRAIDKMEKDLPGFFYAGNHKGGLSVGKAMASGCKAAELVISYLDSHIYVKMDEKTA

Structure (SMILES): Cn1c(C(F)(F)F)cc(=O)n(-c2nc(Oc3cccnc3OCC(=O)O)c(Cl)cc2F)c1=O [Uracilpyridine 3, 2-[[3-[[3-chloro-5-fluoro-6-[3-methyl-2,6-dioxo-4-(trifluoromethyl)pyrimidin-1-yl]-2-pyridyl]oxy]-2-pyridyl]oxy]acetic acid]
- pest or weed control at 1 g/ha ([1]; AMATU_PPO2_WT event Q, 1 g ai/ha): 48%
- pest or weed control at 5 g/ha ([1]; AMATU_PPO2_WT event Q, 5 g ai/ha): 80%
- pest or weed control at 10 g/ha ([1]; AMATU_PPO2_WT event Q, 10 g ai/ha): 100%
- pest or weed control at 30 g/ha ([1]; AMATU_PPO2_WT event Q, 30 g ai/ha): 100%
- pest or weed control at 1 g/ha ([1]; ARBTH WT MC24 non-transgenic, 1 g ai/ha + 1% MSO): 88%
- pest or weed control at 5 g/ha ([1]; ARBTH WT MC24 non-transgenic, 5 g ai/ha + 1% MSO): 100%
- pest or weed control at 10 g/ha ([1]; ARBTH WT MC24 non-transgenic, 10 g ai/ha + 1% MSO): 100%
- pest or weed control at 30 g/ha ([1]; ARBTH WT MC24 non-transgenic, 30 g ai/ha + 1% MSO): 100%
- pest or weed control at 80 g/ha ([1]; ARBTH WT MC24 non-transgenic, 80 g ai/ha + 1% MSO): 100%
- pest or weed control at 5 g/ha ([1]; ARBTH_PPO1_S305L_Y426M event O, 5 g ai/ha): 0%
- pest or weed control at 10 g/ha ([1]; ARBTH_PPO1_S305L_Y426M event O, 10 g ai/ha): 0%
- pest or weed control at 30 g/ha ([1]; ARBTH_PPO1_S305L_Y426M event O, 30 g ai/ha): 49%
- pest or weed control at 80 g/ha ([1]; ARBTH_PPO1_S305L_Y426M event O, 80 g ai/ha): 13%
- pest or weed control at 1 g/ha ([1]; ARBTH_PPO1_WT event Q, 1 g ai/ha): 10%
- pest or weed control at 5 g/ha ([1]; ARBTH_PPO1_WT event Q, 5 g ai/ha): 83%
- pest or weed control at 10 g/ha ([1]; ARBTH_PPO1_WT event Q, 10 g ai/ha): 98%
- pest or weed control at 30 g/ha ([1]; ARBTH_PPO1_WT event Q, 30 g ai/ha): 100%
- Tolerance Factor [2]: 1600

Structure (SMILES): CCOC(=O)COc1ccccc1Oc1nc(-n2c(=O)cc(C(F)(F)F)n(C)c2=O)ccc1Br [Uracilpyridine 6, ethyl 2-[2-[[3-bromo-6-[3-methyl-2,6-dioxo-4-(trifluoromethyl)pyrimidin-1-yl]-2-pyridyl]oxy]phenoxy]acetate]
- pest or weed control at 50 g/ha ([1]; ALOMY_PPO2_R137L_F438V event F): 0%
- pest or weed control at 100 g/ha ([1]; ALOMY_PPO2_R137L_F438V event F): 0%
- pest or weed control at 200 g/ha ([1]; ALOMY_PPO2_R137L_F438V event F): 18%
- pest or weed control at 50 g/ha ([1]; ALOMY_PPO2_R137L_F438V event G): 0%
- pest or weed control at 100 g/ha ([1]; ALOMY_PPO2_R137L_F438V event G): 0%
- pest or weed control at 200 g/ha ([1]; ALOMY_PPO2_R137L_F438V event G): 0%
- pest or weed control at 50 g/ha ([1]; AMATU_PPO2_L397E_F420V event D): 0%
- pest or weed control at 100 g/ha ([1]; AMATU_PPO2_L397E_F420V event D): 0%
- pest or weed control at 200 g/ha ([1]; AMATU_PPO2_L397E_F420V event D): 8%
- pest or weed control at 50 g/ha ([1]; AMATU_PPO2_L397E_F420V event L): 0%
- pest or weed control at 100 g/ha ([1]; AMATU_PPO2_L397E_F420V event L): 0%
- pest or weed control at 200 g/ha ([1]; AMATU_PPO2_L397E_F420V event L): 15%
- pest or weed control at 50 g/ha ([1]; AMATU_PPO2_R128A_F420V event A): 0%
- pest or weed control at 100 g/ha ([1]; AMATU_PPO2_R128A_F420V event A): 43%
- pest or weed control at 200 g/ha ([1]; AMATU_PPO2_R128A_F420V event A): 30%
- pest or weed control at 50 g/ha ([1]; AMATU_PPO2_R128A_F420V event D): 0%
- pest or weed control at 100 g/ha ([1]; AMATU_PPO2_R128A_F420V event D): 38%
- pest or weed control at 200 g/ha ([1]; AMATU_PPO2_R128A_F420V event D): 28%

Structure (SMILES): CCOC(=O)COc1ccc(F)cc1Oc1nc(-n2c(=O)cc(C(F)(F)F)n(C)c2=O)c(F)cc1Cl [Uracilpyridine 7, ethyl 2-[2-[[3-chloro-5-fluoro-6-[3-methyl-2,6-dioxo-4-(trifluoromethyl)pyrimidin-1-yl]-2-pyridyl]oxy]-4-fluoro-phenoxy]acetate]
- pest or weed control at 50 g/ha ([1]; ALOMY_PPO2_R137L_F438V event F): 0%
- pest or weed control at 100 g/ha ([1]; ALOMY_PPO2_R137L_F438V event F): 18%
- pest or weed control at 200 g/ha ([1]; ALOMY_PPO2_R137L_F438V event F): 13%
- pest or weed control at 50 g/ha ([1]; ALOMY_PPO2_R137L_F438V event G): 0%
- pest or weed control at 100 g/ha ([1]; ALOMY_PPO2_R137L_F438V event G): 0%
- pest or weed control at 200 g/ha ([1]; ALOMY_PPO2_R137L_F438V event G): 8%
- pest or weed control at 50 g/ha ([1]; AMATU_PPO2_L397E_F420V event D): 0%
- pest or weed control at 100 g/ha ([1]; AMATU_PPO2_L397E_F420V event D): 0%
- pest or weed control at 200 g/ha ([1]; AMATU_PPO2_L397E_F420V event D): 10%
- pest or weed control at 50 g/ha ([1]; AMATU_PPO2_L397E_F420V event L): 0%
- pest or weed control at 100 g/ha ([1]; AMATU_PPO2_L397E_F420V event L): 0%
- pest or weed control at 200 g/ha ([1]; AMATU_PPO2_L397E_F420V event L): 33%
- pest or weed control at 50 g/ha ([1]; AMATU_PPO2_R128A_F420V event A): 13%
- pest or weed control at 100 g/ha ([1]; AMATU_PPO2_R128A_F420V event A): 50%
- pest or weed control at 200 g/ha ([1]; AMATU_PPO2_R128A_F420V event A): 70%
- pest or weed control at 50 g/ha ([1]; AMATU_PPO2_R128A_F420V event D): 33%
- pest or weed control at 100 g/ha ([1]; AMATU_PPO2_R128A_F420V event D): 65%
- pest or weed control at 200 g/ha ([1]; AMATU_PPO2_R128A_F420V event D): 75%

Structure (SMILES): CCOC(=O)COc1ccccc1Oc1nc(-n2c(=O)c(C)c(C(F)(F)F)n(C)c2=O)c(F)cc1Cl [Uracilpyridine 12, ethyl 2-[2-[[3-chloro-6-[3,5-dimethyl-2,6-dioxo-4-(trifluoromethyl)pyrimidin-1-yl]-5-fluoro-2-pyridyl]oxy]phenoxy]acetate]
- IC50 [3]: 0.212 nM
- Tolerance Factor (R/S) [4]: 536

Structure (SMILES): C=CCOC(=O)COc1ncccc1Oc1nc(-n2c(=O)cc(C(F)(F)F)n(C)c2=O)c(F)cc1Cl [Uracilpyridine 13, allyl 2-[[3-[[3-chloro-5-fluoro-6-[3-methyl-2,6-dioxo-4-(trifluoromethyl)pyrimidin-1-yl]-2-pyridyl]oxy]-2-pyridyl]oxy]acetate]
- IC50 [3]: 0.218 nM
- Tolerance Factor (R/S) [4]: 421

Structure (SMILES): C#CCOC(=O)COc1ncccc1Oc1nc(-n2c(=O)cc(C(F)(F)F)n(C)c2=O)c(F)cc1Cl [Uracilpyridine 14, prop-2-ynyl 2-[[3-[[3-chloro-5-fluoro-6-[3-methyl-2,6-dioxo-4-(trifluoromethyl)pyrimidin-1-yl]-2-pyridyl]oxy]-2-pyridyl]oxy]acetate]
- IC50 [3]: 0.234 nM
- Tolerance Factor (R/S) [4]: 675

Structure (SMILES): Cn1c(C(F)(F)F)cc(=O)n(-c2nc(Oc3cccnc3OCC(=O)OCC3CC3)c(Cl)cc2F)c1=O [Uracilpyridine 15, cyclopropylmethyl 2-[[3-[[3-chloro-5-fluoro-6-[3-methyl-2,6-dioxo-4-(trifluoromethyl)pyrimidin-1-yl]-2-pyridyl]oxy]-2-pyridyl]oxy]acetate]
- IC50 [3]: 0.22 nM
- Tolerance Factor (R/S) [4]: 195

Structure (SMILES): Cn1c(C(F)(F)F)cc(=O)n(-c2nc(Oc3cccnc3OCC(=O)OCC(F)F)c(Cl)cc2F)c1=O [Uracilpyridine 16, 2,2-difluoroethyl 2-[[3-[[3-chloro-5-fluoro-6-[3-methyl-2,6-dioxo-4-(trifluoromethyl)pyrimidin-1-yl]-2-pyridyl]oxy]-2-pyridyl]oxy]acetate]
- IC50 [3]: 0.175 nM
- Tolerance Factor (R/S) [4]: 508

Structure (SMILES): CC(C)COC(=O)COc1ncccc1Oc1nc(-n2c(=O)cc(C(F)(F)F)n(C)c2=O)c(F)cc1Cl [Uracilpyridine 17, isobutyl 2-[[3-[[3-chloro-5-fluoro-6-[3-methyl-2,6-dioxo-4-(trifluoromethyl)pyrimidin-1-yl]-2-pyridyl]oxy]-2-pyridyl]oxy]acetate]
- IC50 [3]: 0.113 nM
- Tolerance Factor (R/S) [4]: 406

Structure (SMILES): CCOC(=O)COC(=O)COc1ncccc1Oc1nc(-n2c(=O)cc(C(F)(F)F)n(C)c2=O)c(F)cc1Cl [Uracilpyridine 18, (2-ethoxy-2-oxo-ethyl) 2-[[3-[[3-chloro-5-fluoro-6-[3-methyl-2,6-dioxo-4-(trifluoromethyl)pyrimidin-1-yl]-2-pyridyl]oxy]-2-pyridyl]oxy]acetate]
- IC50 [3]: 0.154 nM
- Tolerance Factor (R/S) [4]: 753

Structure (SMILES): COCCOC(=O)COc1ncccc1Oc1nc(-n2c(=O)cc(C(F)(F)F)n(C)c2=O)c(F)cc1Cl [Uracilpyridine 19, 2-methoxyethyl 2-[[3-[[3-chloro-5-fluoro-6-[3-methyl-2,6-dioxo-4-(trifluoromethyl)pyrimidin-1-yl]-2-pyridyl]oxy]-2-pyridyl]oxy]acetate]
- IC50 [3]: 0.248 nM
- Tolerance Factor (R/S) [4]: 503
